Like-named read-outs stand apart in the source and are kept apart here.
Tests used:
[1] = type: in vitro ADME
Procedure: (§1) Protein binding was also evaluated in an in vitro study in human, mouse, rat, and dog plasma using equilibrium dialysis (12-14K molecular weight cut-off membrane). This study measured the binding of (^14C)-cilansetron in plasma at nominal concentrations (30, 90, and 300 ng/mL) which are much higher than those encountered in vivo in humans. This study also measured the binding of (^14C)-cilansetron to purified human serum albumin at cilansetron concentrations ranging from 30-3000 ng/mL and to purified human alpha-1 acid glycoprotein (AAG) at concentrations ranging from 30-10000 ng/mL.

[2] = test system: purified human alpha-1 acid glycoprotein (AAG); type: in vitro ADME
Procedure: as §1

[3] = target: purified human serum albumin (Homo sapiens, UniProt P02768); type: in vitro ADME
Procedure: as §1

healthy subjects = experiment: Study K.241.5012: gastric emptying time, healthy young subjects; type: in vivo, human; details: mean (SD), not significant vs placebo
From the text: The effect of cilansetron on gastric emptying time and colonic transit time has been studied in 1 clinical study in healthy young subjects and 2 studies in elderly subjects. For measurement of gastric emptying time, breath samples for the determination of the ^12C/^13C ratio were taken on the last day of each treatment period immediately after ingestion of a ^13C labeled meal. The patients' breath was collected in separate 15-minute intervals, for four hours in total. ^13CO2 measurements were performed with an isotope ratio mass spectrometer. The half-life (TK) and lag-time (Tlag), which describe the duration of gastric emptying, were used as the primary parameters to evaluate gastric emptying time. In all 3 studies, colonic transit time was measured by administration of radio-opaque markers for the last six days of each treatment period, followed by a single abdominal X-ray image at 24 hours after ingestion of the last set of markers. The numbers of markers within the colon were used to calculate segmental (right colon, left colon, and rectosigmoid) and total colonic transit time.
Study K.241.5013 was a randomized, double-blind, placebo-controlled, 3-way crossover study in 12 healthy male subjects (ITT population), aged 20-27 years. Subjects received cilansetron 4 mg, cilansetron 8 mg, or placebo orally TID for 14 days during each of the treatment periods, with a 14-day washout between periods. The primary efficacy parameter was the total mean colonic transit time during each treatment and the secondary parameters were the segmental colonic transit times and the gastric emptying measurements. A one-sided Dunnett t-test procedure was used to compare efficacy parameters between the cilansetron and placebo treatments.

[4] = both, human, in vivo
Procedure: The effect of hepatic impairment on the pharmacokinetics of cilansetron was evaluated in a multiple-dose, parallel group study in 14 healthy and 14 moderately to severely hepatically impaired male and female subjects, aged 41-70 years. Impaired subjects (Child-Pugh score 7 to 11) were matched to healthy subjects by age (±2 years), sex, menstrual status, and smoking history status. All subjects received oral cilansetron 8 mg TID on Days 1 to 5, and a single dose on the morning of Day 6. […] Blood samples were also collected at predose on Day 1, and at predose, 1 hour and 1.5 hours postdose on Day 6, for measurement of cilansetron protein binding in serum.

CYP2C19 = details: hepatocytes
serum proteins = experiment: in vitro; details: both, human, plasma, Plasma protein bound
Procedure: The ex vivo protein binding of cilansetron and its 4-hydroxy metabolites has been measured in serum samples collected in a multiple-dose study in healthy and renally impaired male and female subjects, aged 33-74 years. […] Healthy subjects were matched to renally-impaired subjects with respect to age, weight, gender, and smoking status. All subjects received oral cilansetron 2 mg TID on Days 1 to 5, and a single dose on the morning of Day 6.

Chain of purified human serum albumin (P02768 25-609): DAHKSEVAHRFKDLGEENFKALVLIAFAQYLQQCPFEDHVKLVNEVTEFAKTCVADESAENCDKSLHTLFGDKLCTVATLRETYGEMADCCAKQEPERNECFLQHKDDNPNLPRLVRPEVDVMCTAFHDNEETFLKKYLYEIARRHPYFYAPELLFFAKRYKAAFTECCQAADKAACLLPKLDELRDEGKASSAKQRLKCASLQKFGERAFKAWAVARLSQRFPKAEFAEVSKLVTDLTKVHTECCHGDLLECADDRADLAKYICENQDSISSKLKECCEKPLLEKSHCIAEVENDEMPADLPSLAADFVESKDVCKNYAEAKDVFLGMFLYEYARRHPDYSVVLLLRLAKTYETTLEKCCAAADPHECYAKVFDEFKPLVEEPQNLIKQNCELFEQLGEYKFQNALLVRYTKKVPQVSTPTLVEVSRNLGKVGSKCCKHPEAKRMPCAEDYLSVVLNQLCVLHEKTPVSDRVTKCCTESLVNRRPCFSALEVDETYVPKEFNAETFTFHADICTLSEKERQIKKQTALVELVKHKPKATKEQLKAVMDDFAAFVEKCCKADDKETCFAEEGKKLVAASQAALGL

## Cc1nccn1C[C@H]1CCc2c(c3cccc4c3n2CCC4)C1=O [Cilansetron, (R)-(−)-4,5,6,8,9,10-hexahydro-10-[(2-methyl-1H-imidazol-1-yl)methyl]-11H-pyrido-[3,2,1-jk]-carbazol-11-one]
[1]; dog
  Plasma binding: 86.5%
[1]; mouse
  Plasma binding: 83.3%
[1]; rat
  Plasma binding: 88.2%
[2]
  Binding to AAG: around 90%
[3]
  Binding to human albumin: 65.9%
Healthy subjects; 4 mg TID oral 14 days
  gastric emptying time Tlag: 1.70 (0.22) hours
  gastric emptying time T½: 2.46 (0.35) hours
Healthy subjects; 8 mg TID oral 14 days
  gastric emptying time Tlag: 1.63 (0.30) hours
  gastric emptying time T½: 2.38 (0.42) hours
[4]
  Increase in half-life with hepatic impairment: 2 fold
[4]; 8 mg
  AUC increase with hepatic impairment: 88%
  Cmax increase with hepatic impairment: 22%
[4]; po, 8 mg
  AUC(0-τ) Ratio: 1.88
  AUC(0-τ), Geom. LS Mean: 178 ng·h/mL
  Cmax: 75.2 (40) ng/mL
  Cmax Ratio: 1.22
  Cmax, Geom. LS Mean: 68.7 ng/mL
  T½: 4.37 (25) h
  Vz/F: 303 (45) L
CYP2C19
  Increase of CYP2C19: about half of that caused by phenobarbital
Serum proteins
  fraction unbound: ~0.04

From patent US20090176817A1, “Method of Treatment of Diarrhea-Predominant Irritable Bowel Syndrome in a Subject” (priority 2005, published 2009)
